How the values were obtained:
[1] = biological target: T1, CD45 (Homo sapiens, UniProt P08575); test: In vitro PTPase inhibition assay (pNPP, colorimetric), CD45; format: biochemical; conditions: Table 9; read-out: IC50 values against CD45
T1 construct: The PCR reaction product (2127 bp) was digested with Sma I (New England Biolabs, Beverly Mass.) to yield a 2110 bp product; made in house; host or cells: E. coli DH5α, plasmid pET24C-CD45
T1 sequence (P08575 599-1306 limits assumed): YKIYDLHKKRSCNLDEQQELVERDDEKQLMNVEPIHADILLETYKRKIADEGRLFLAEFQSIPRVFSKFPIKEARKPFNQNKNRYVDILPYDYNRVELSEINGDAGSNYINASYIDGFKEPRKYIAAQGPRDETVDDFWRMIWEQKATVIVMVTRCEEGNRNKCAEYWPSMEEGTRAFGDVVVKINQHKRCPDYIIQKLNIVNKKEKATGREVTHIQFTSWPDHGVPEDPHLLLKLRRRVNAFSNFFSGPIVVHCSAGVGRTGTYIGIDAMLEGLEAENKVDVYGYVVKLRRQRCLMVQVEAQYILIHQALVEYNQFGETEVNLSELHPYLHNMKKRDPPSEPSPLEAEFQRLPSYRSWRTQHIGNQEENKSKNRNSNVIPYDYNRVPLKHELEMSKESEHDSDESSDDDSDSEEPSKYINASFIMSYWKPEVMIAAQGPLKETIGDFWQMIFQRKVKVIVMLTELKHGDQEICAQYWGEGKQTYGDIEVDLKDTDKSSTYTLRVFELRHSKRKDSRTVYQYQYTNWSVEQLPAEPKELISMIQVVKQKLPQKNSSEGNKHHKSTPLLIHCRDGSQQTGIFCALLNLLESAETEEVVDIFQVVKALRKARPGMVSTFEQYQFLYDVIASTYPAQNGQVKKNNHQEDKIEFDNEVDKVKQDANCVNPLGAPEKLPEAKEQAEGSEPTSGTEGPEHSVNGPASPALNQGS
Protocol: CD45 enzymatic activity of samples was assayed in microtiter plates as follows. […] Louis Mo.), and 80 ul of activity assay buffer (100 mM sodium acetate, pH 6.0, 1 mM EDTA, 0.1% Triton X-100, 15 mM bME). Reactions were mixed gently and incubated at 37° C. for 60 minutes. […] To determine the enzymatic activity, absorbance readings of the reactions were measured at 405 nm using a Molecular Devices Thermomax Plate Reader (Menlo Park Calif.). […] Purified phosphatase was added to the reaction mixtures to begin the reactions; the reactions were incubated at 37° C. for 60 min. […] (for PTP-1C and PTPα assays), stopped, and colorimetrically analyzed as described above. […] First, absorbance readings from the negative control reactions were treated as a baseline and subtracted from the absorbance readings of the experimental reactions. Then, for each reaction, a percent inhibition was calculated using the following formula: […] For each inhibitor compound tested, an IC50 concentration was calculated from a best-fit computer analysis of the calculated percent inhibition for the various dilutions of the compound. CD45 enzymatic activity of samples was assayed in microtiter plates as follows. […] Louis Mo.), and 80 ul of activity assay buffer (100 mM sodium acetate, pH 6.0, 1 mM EDTA, 0. 1% Triton X-100, 15 mM bME). Reactions were mixed gently and incubated at 37° C. for 60 minutes. […] To determine the enzymatic activity, absorbance readings of the reactions were measured at 405 nm using a Molecular Devices Thermomax Plate Reader (Menlo Park Calif.). […] Purified phosphatase was added to the reaction mixtures to begin the reactions; the reactions were incubated at 37° C. for 60 min. […] (for PTP-1C and PTPα assays), stopped, and calorimetrically analyzed as described above. […] First, absorbance readings from the negative control reactions were treated as a baseline and subtracted from the absorbance readings of the experimental reactions. Then, for each reaction, a percent inhibition was calculated using the following formula: […] For each inhibitor compound tested, an IC50 concentration was calculated from a best-fit computer analysis of the calculated percent inhibition for the various dilutions of the compound.

[2] = biological target: T2, PTP-1B (Homo sapiens, UniProt P18031); test: In vitro PTPase inhibition assay (pNPP, colorimetric), PTP-1B; format: biochemical; conditions: Table 9; read-out: IC50 values against PTP1B
T2 construct: known to encode a 321 amino acid fragment containing the PTP-1B catalytic domain and having PTPase activity; made in house; host or cells: E. coli DH5α, plasmid pGEX-3X-PTP-1B
T2 sequence (P18031 3-277 limits assumed): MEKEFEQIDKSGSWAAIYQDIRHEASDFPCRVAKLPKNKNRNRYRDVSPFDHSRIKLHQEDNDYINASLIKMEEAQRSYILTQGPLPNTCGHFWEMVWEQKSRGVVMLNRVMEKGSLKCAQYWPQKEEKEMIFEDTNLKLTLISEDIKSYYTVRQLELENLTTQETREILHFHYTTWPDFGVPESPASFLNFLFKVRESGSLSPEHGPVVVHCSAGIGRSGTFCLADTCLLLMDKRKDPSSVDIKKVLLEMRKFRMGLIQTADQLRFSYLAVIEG
Protocol: PTP-1B enzymatic activity of samples was assayed in microtiter plates as follows. The protein concentration of the PTP-1B enzyme preparation was determined using the Bio-Rad Protein Assay kit (Bio-Rad, Hercules Calif.). […] Reactions were mixed gently and incubated at 37° C. for 60 minutes. Enzymatic cleavage of phosphate from pNPP (a tyrosine phosphate analog) is marked by a colorimetric change in this substrate. See, e.g., Imbert et al., Biochem J., 297:163-173 (1994); Ghosh and Miller, Biochem. Biophys. Res. […] Zanke et al., Eur. J. […] To determine the enzymatic activity, absorbance readings of the reactions were measured at 405 nm using a Molecular Devices Thermomax Plate Reader (Menlo Park Calif.). […] Purified phosphatase was added to the reaction mixtures to begin the reactions; the reactions were incubated at 37° C. for 60 min. […] (for PTP-1C and PTPα assays), stopped, and colorimetrically analyzed as described above. […] First, absorbance readings from the negative control reactions were treated as a baseline and subtracted from the absorbance readings of the experimental reactions. Then, for each reaction, a percent inhibition was calculated using the following formula: […] For each inhibitor compound tested, an IC50 concentration was calculated from a best-fit computer analysis of the calculated percent inhibition for the various dilutions of the compound. PTP-1B enzymatic activity of samples was assayed in microtiter plates as follows. The protein concentration of the PTP-1B enzyme preparation was determined using the Bio-Rad Protein Assay kit (Bio-Rad, Hercules Calif.). […] Reactions were mixed gently and incubated at 37° C. for 60 minutes. Enzymatic cleavage of phosphate from pNPP (a tyrosine phosphate analog) is marked by a colorimetric change in this substrate. See, e.g., Imbert et al., Biochem J., 297:163-173 (1994); Ghosh and Miller, Biochem. Biophys. Res. […] Zanke et al., Eur. […] To determine the enzymatic activity, absorbance readings of the reactions were measured at 405 nm using a Molecular Devices Thermomax Plate Reader (Menlo Park Calif.). […] Purified phosphatase was added to the reaction mixtures to begin the reactions; the reactions were incubated at 37° C. for 60 min. […] (for PTP-1C and PTPα assays), stopped, and calorimetrically analyzed as described above. […] First, absorbance readings from the negative control reactions were treated as a baseline and subtracted from the absorbance readings of the experimental reactions. Then, for each reaction, a percent inhibition was calculated using the following formula: […] For each inhibitor compound tested, an IC50 concentration was calculated from a best-fit computer analysis of the calculated percent inhibition for the various dilutions of the compound.

SMILES | IC50 [1] | IC50 [2]
COc1ccc(-c2nc(-c3ccc(/C=C/C(=O)O)cc3)c(-c3ccc(/C=C/C(=O)O)cc3)[nH]2)cc1 [Compound 58] | 970 nM | 250 nM
O=C(O)/C=C/c1ccc(-c2nc(-c3cc(F)ccc3F)[nH]c2-c2ccc(/C=C/C(=O)O)cc2)cc1 [Compound 76] | 930 nM | 680 nM
O=C(O)/C=C/c1ccc(-c2nc[nH]c2-c2ccc(/C=C/C(=O)O)cc2)cc1 [Compound 55] | 560 nM | 100 nM
O=C(O)/C=C/c1ccc(-c2nc(-c3cccs3)[nH]c2-c2ccc(/C=C/C(=O)O)cc2)cc1 [Compound 70] | 1900 nM | 420 nM
O=C(O)/C=C/c1ccc(-c2nc(-c3ccc4ccc5cccc6ccc3c4c56)[nH]c2-c2ccc(/C=C/C(=O)O)cc2)cc1 [Compound 80] | 20000 nM | 10000 nM
O=C(O)/C=C/c1ccc(-c2nc3cccnc3nc2-c2ccc(/C=C/C(=O)O)cc2)cc1 [Compound 160] | 1520 nM | 980 nM
O=C(O)/C=C/c1ccc(-c2nc(-c3cccc(F)c3)[nH]c2-c2ccc(/C=C/C(=O)O)cc2)cc1 [Compound 61] | 955 nM | 970 nM
O=C(O)/C=C/c1ccc(-c2nc(-c3ccc(F)c(F)c3)[nH]c2-c2ccc(/C=C/C(=O)O)cc2)cc1 [Compound 66] | 2500 nM | 1700 nM
O=C(O)/C=C/c1ccc(-c2nc(-c3cc(F)cc(F)c3)[nH]c2-c2ccc(/C=C/C(=O)O)cc2)cc1 [Compound 65] | 1400 nM | 1300 nM
O=C(O)/C=C/c1ccc(-c2ncn(-c3ccccc3)c2-c2ccc(/C=C/C(=O)O)cc2)cc1 [Compound 99] | 7400 nM | 1500 nM
O=C(O)/C=C/c1ccc(-c2nc3ccc(C(=O)O)cc3nc2-c2ccc(/C=C/C(=O)O)cc2)cc1 [Compound 155] | 1300 nM | 1000 nM
O=C(O)/C=C/c1ccc(-c2nc(-c3ccc4c(c3)OCCO4)[nH]c2-c2ccc(/C=C/C(=O)O)cc2)cc1 [Compound 71] | 530 nM | 430 nM
COc1cc(OC)c(OC)c(-c2nc(-c3ccc(/C=C/C(=O)O)cc3)c(-c3ccc(/C=C/C(=O)O)cc3)[nH]2)c1 [Compound 72] | 5500 nM | 520 nM
O=C(O)/C=C/c1ccc(-c2nc(-c3ccc4c(c3)CCC4)[nH]c2-c2ccc(/C=C/C(=O)O)cc2)cc1 [Compound 89] | > 100000 nM | 13700 nM
O=C(O)/C=C/c1ccc(-c2nc(-c3cc4ccccc4c4ccccc34)[nH]c2-c2ccc(/C=C/C(=O)O)cc2)cc1 [Compound 81] | 19000 nM | 26000 nM
CCCCCc1nc(-c2ccc(/C=C/C(=O)O)cc2)c(-c2ccc(/C=C/C(=O)O)cc2)[nH]1 [Compound 77] | 7500 nM | 780 nM
O=C(O)/C=C/c1ccc(-c2nc(-c3cccc(F)c3F)[nH]c2-c2ccc(/C=C/C(=O)O)cc2)cc1 [Compound 67] | 1250 nM | 1000 nM
CC(=O)Nc1ccc(-c2nc(-c3ccc(/C=C/C(=O)O)cc3)c(-c3ccc(/C=C/C(=O)O)cc3)[nH]2)cc1 [Compound 90] | 1120 nM | 860 nM
COC(=O)c1ccc2cc(-c3nc(-c4ccc(/C=C/C(=O)O)cc4)c(-c4ccc(/C=C/C(=O)O)cc4)[nH]3)[nH]c2c1 [Compound 64] | 6400 nM | 3000 nM
COc1ccc(-c2nc(-c3ccc(/C=C/C(=O)O)cc3)c(-c3ccc(/C=C/C(=O)O)cc3)[nH]2)cc1F [Compound 83] | 1500 nM | 1300 nM
O=C(O)/C=C/c1ccc(C(=O)C(=O)c2ccc(/C=C/C(=O)O)cc2)cc1 [Compound 9] | 3900 nM | 370 nM
COc1cccc(-c2nc(-c3ccc(/C=C/C(=O)O)cc3)c(-c3ccc(/C=C/C(=O)O)cc3)[nH]2)c1[N+](=O)[O-] [Compound 59] | 350 nM | 250 nM
O=C(O)/C=C/c1ccc(-c2nc(C(=O)OCc3ccccc3)c(-c3ccc(/C=C/C(=O)O)cc3)[nH]2)cc1 [Compound 136] | 8000 nM | 700 nM
O=C(O)/C=C/c1ccc(-c2nc(-c3ccc(C(=O)O)cc3)[nH]c2-c2ccc(/C=C/C(=O)O)cc2)cc1 [Compound 54] | 730 nM | 72 nM
COC(=O)c1ccc2nc(-c3ccc(/C=C/C(=O)O)cc3)c(-c3ccc(/C=C/C(=O)O)cc3)nc2c1 [Compound 156] | 1300 nM | 1700 nM

Reference: patent US20020183518A1, “Modulators of proteins with phosphotyrosine recognition units” (ONTOGEN CORPORATION, priority 1995, published 2002)
